Measurements taken from publication PMC12706794, “Identification and Characterization of a Small-Molecule Inhibitor of the Pseudomonas aeruginosa SOS Response” (ACS Infectious Diseases, 2025).
Values after ≈ are worked out from the molar mass of the structure shown.

Key:
[1] = target: T1, RecAPa (Pseudomonas aeruginosa, UniProt P08280); test: Differential scanning fluorimetry (thermal shift) on RecAPa; format: binding, P. aeruginosa; conditions: read-out: RecAPa ΔTm compared to the control
T1 construct: made in house; host or cells: E. coli BL21(DE3)
Procedure: (§1) To elucidate whether A12 binds RecAPa or LexAPa, the two proteins were submitted to a thermal shift assay by DSF, in the presence of different concentrations of A12 (30–1000 μM; Figure A–C). Controls devoid of A12 were included, as well.
(§2) Fluorescence of the SyproOrange dye was measured by a StepOne Real-Time PCR System (Applied Biosystems), while increasing the temperature from 25 to 95 °C (0.5 °C/min). Normalized fluorescence intensity curves were compared to observe macroscopic differences in the recorded melting profiles, while derivative curves were analyzed to find exact protein melting temperatures (T m, corresponding to derivative curve minimum). Melting curves were repeated twice, and duplicates were considered coherent if T m differences were lower than 1 °C.

[2] = target: T2, LexAPa S125A / SOS-box dsDNA (Pseudomonas aeruginosa, UniProt P37452, S125A); test: EMSA of LexAPa S125A binding to SOS box dsDNA; format: biochemical, P. aeruginosa; conditions: 60-fold molar excess of A12
T2 construct: Concerning full-length LexAPa ^S125A, a biphasic melting curve was obtained for the pure protein; made in house; host or cells: E. coli BL21(DE3)
Procedure: LexAPa DNA-binding activity–which has to be preserved for an anti-SOS strategy to be effective–resides on the NTD but requires dimerization via the CTD. In this context, to rule out any interfering effect of A12 on LexAPa binding to SOS-box DNA, an EMSA was performed by incubating LexAPa with operator dsDNA sequences and different doses of A12, before analyzing the mixtures on native polyacrylamide gels.
An EMSA of the SOS-box dsDNA in the presence of full-length LexAPaS125A and different concentrations of the hit compound was performed to observe the potential interference effects of the selected drug on LexAPa binding to operator DNA sequences.
SOS-box dsDNA was produced by mixing equimolar amounts of AT-repeat_For and AT-repeat_Rev oligonucleotides (Supplementary, Table S1) in annealing buffer (10 mM Tris–HCl, 50 mM NaCl, 1 mM EDTA, pH 7.5), heating at 95 °C for 5 min, and then allowing the mixture to cool down to room temperature slowly overnight. The E. coli “AT-repeat” operator sequence was used as it is fully compatible with the P. aeruginosa SOS-box consensus (CTG-N2-T-N7-CAG).
1 μM SOS-box dsDNA was incubated either alone or with 8 μM 6His-LexAPa ^S125A in EMSA buffer (50 mM Tris–HCl, 750 mM KCl, 0.5 mM EDTA, pH 7.4). […]

[3] = Solubility in aqueous buffers; format: physicochemical; conditions: aqueous buffer, read-out: Solubility in aqueous buffers, concentration above which it strongly worsened
[4] = target: T3, LexAPa S125A (Pseudomonas aeruginosa, UniProt P37452, S125A); test: Differential scanning fluorimetry (thermal shift) on LexAPa S125A; format: binding, P. aeruginosa; conditions: A12 above 100 μM
T3 construct: Concerning full-length LexAPa ^S125A, a biphasic melting curve was obtained for the pure protein; made in house; host or cells: E. coli BL21(DE3)
Procedure: as §1, §2

[5] = system: A549 cells; test: Cytotoxicity assessment by MTT assay, A549; format: cell-based, Human; conditions: combination of ciprofloxacin 0.5 μg/mL and A12 100 μg/mL, 3 h
Procedure: A549 cells were seeded in flat-bottom 96-well plates at 5 × 10^4 cells/well. THP-1 monocytes were differentiated into macrophages using PMA as described above, rested in PMA-free medium, detached by trypsinization, and seeded at 5 × 10^4 cells/well. Plates were incubated overnight to allow cell attachment. […] Test medium was then removed and replaced with fresh medium containing 0.5 mg/mL 3-(4,5-dimethylthiazol-2-yl)-2,5-diphenyltetrazolium bromide (MTT). After a 2 h incubation, the medium was discarded, formazan crystals were solubilized with 100 μL of DMSO, and absorbance was measured at 570 nm using a spectrophotometer (Varioskan LUX Multimode Microplate Reader, Thermo Fisher Scientific). Cell viability was expressed as a percentage relative to the untreated controls.

[6] = ESI-MS analysis of A12 in buffer; format: physicochemical; conditions: 2 mM A12 in FP assay buffer, no DTT
Procedure: The same analysis was conducted after treatment of A12 with 2 mM DTT (Figure B). In this sample, the MS signals corresponding to the disulfide adduct were absent, leading to the conclusion that the dimerization of A12 by the formation of a disulfide bridge can occur under physiological conditions. When in monomeric form, the compound is likely degraded and/or not detectable by MS under the tested experimental conditions.
MS analysis was carried out on 5 μL samples of compound A12 (2 mM), of the proteins 6His-LexAPa and 6His-RecAPa (50 μM), and of the same proteins incubated with 2 mM A12 (2 h incubation at 25 °C, 10% v/v DMSO in 100 mM NaHCO3 pH 7.0). Aliquots of the latter samples were treated with 5 mM dithiothreitol (DTT) for 1 h at 25 °C before being buffer-exchanged in 100 mM NaHCO3 at pH 7.0. Samples were analyzed by an electrospray ionization (ESI) mass spectrometer equipped with a Xevo G2-XS ESI-Q-TOF mass spectrometer (Waters Corporation, Milford, Massachusetts, USA). Measurements were carried out at 1.5–1.8 kV capillary voltage and 30–40 V cone voltage.

[7] = system: P. aeruginosa PAO1 on THP-1-derived macrophages; test: P. aeruginosa PAO1 colonization of THP-1-derived macrophages; format: cell-based
Procedure: THP-1-derived macrophages were generated from THP-1 monocytes as previously described, with minor modifications. , Briefly, THP-1 monocytes were washed three times with antibiotic-free RPMI 1640 medium and resuspended in complete antibiotic-free RPMI 1640 supplemented with 300 nM phorbol 12-myristate 13-acetate (PMA). Cells were incubated for 24 h, followed by a 48 h rest period in PMA-free RPMI 1640 prior to use in subsequent experiments. […] PMA-differentiated THP-1-derived macrophages were similarly trypsinized and seeded into 24-well plates at 5 × 10^5 cells/well in complete, antibiotic-free RPMI supplemented with FBS. Cells were incubated overnight to allow for attachment. Immediately prior to infection, the medium was aspirated, and cells were washed three times with Dulbecco’s phosphate-buffered saline. […] Infection was synchronized by centrifuging plates at 1000g for 1 min. […] Following the infection period, the medium was aspirated, and cells were washed three times with DPBS to remove unattached bacteria and residual test compounds. […] In both cases, the resulting lysates were serially diluted in DPBS and plated on tryptic soy agar plates. Plates were incubated at 37 °C for 24 h, after which colonies were enumerated. Bacterial burden was expressed as the CFU per well.

T1 sequence (P08280 2-346): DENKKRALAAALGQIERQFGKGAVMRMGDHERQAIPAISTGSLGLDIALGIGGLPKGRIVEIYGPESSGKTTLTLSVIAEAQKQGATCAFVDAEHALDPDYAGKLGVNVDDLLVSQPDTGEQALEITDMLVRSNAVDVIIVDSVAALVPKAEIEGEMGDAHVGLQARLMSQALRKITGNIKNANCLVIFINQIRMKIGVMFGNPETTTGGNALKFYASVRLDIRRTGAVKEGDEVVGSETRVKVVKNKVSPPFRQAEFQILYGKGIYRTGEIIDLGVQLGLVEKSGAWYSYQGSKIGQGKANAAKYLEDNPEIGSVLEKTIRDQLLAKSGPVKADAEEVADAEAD
T3 sequence (P37452 2-204 S125A): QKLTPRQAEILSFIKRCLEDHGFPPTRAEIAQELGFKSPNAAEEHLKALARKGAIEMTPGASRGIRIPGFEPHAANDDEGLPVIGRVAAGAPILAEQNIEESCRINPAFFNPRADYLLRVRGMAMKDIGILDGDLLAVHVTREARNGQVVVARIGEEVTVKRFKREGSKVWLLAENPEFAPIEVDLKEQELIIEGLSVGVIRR
T2 sequence (P37452 2-204 S125A): as above

O=C(O)CCNc1ccccc1S [A12, 3-(2-sulfanylanilino)propanoic acid]
ΔTm at 1000 µM [1]: 10 °C
LexAPa SOS box DNA-binding activity in the presence of A12 [2]: retained full SOS box DNA-binding activity
solubility [3]: ~500 µM (≈ 98.6 µg/mL)
LexAPa S125A flexus of monophasic melting curve [4]: 52.0 °C
Cell viability compared to the untreated control [5]: higher than 80%
Form of A12 in solution by MS [6]: mainly exists as a disulfide-bridged self-dimer in solution
Intracellular (internalized) burden of PAO1 in THP-1-derived macrophages ([7]; A12 100 μg/mL alone): reduced the internalized bacterial growth
Intracellular (internalized) burden of PAO1 in THP-1-derived macrophages ([7]; combination of ciprofloxacin 0.5 μg/mL and A12 100 μg/mL): synergized with ciprofloxacin
Total (adherent + intracellular) burden of PAO1 on THP-1-derived macrophages ([7]; single agent: ciprofloxacin 0.5 μg/mL or A12 100 μg/mL, 3 h infection): diminished
